From patent US8574831B2, “Mutational profiles in HIV-1 reverse transcriptase correlated with phenotypic drug resistance” (Virco N.V., priority 2000, dated 2013)

System: HIV with mutations in the HIV protease sequence
Assay: Phenotypic fold resistance to protease inhibitors, protease mutations 84A/84L/84C/54M/54L/54V in a background (Examples 8-13)
Type: cell-based, HIV-1
Experimental: As is the case with the genotyping assays, the recombinant virus assay starts with the amplification of viral target sequences by means of PCR. The amplicons are incorporated into a proviral laboratory clone with sequences homologous to those present in the amplicon deleted. This generates a stock of chimeric viruses. The viruses are tested for their ability to grow in the presence of different concentrations of drugs. Results are obtained by calculating IC50 values for each inhibitor and by reporting the results as IC50 values, expressed in μM concentrations, or by computing the ratio of the IC50 values found for the chimeric virus to the IC50 values found for a wild type susceptible laboratory virus tested in parallel. In the latter case, resistance is expressed as “fold-resistance” compared to a wild-type susceptible HIV-1 strain. In order to meet the need for high-volume testing and a short turn-around time for an individual test, the latest generation of phenotyping assays has undergone further modifications. The use of reporter gene systems for susceptibility testing allows the implementation of laboratory automation and standardization. See Pauwels, et al., J. Virol. Methods 20, 309-321 (1998); Paulous, S., et al., International Workshop on HIV Drug Resistance, Treatment Strategies and Eradication, St. Petersburg, Fla., USA. Abstr. 46 (1997); and Deeks, S. G., et al., 2nd International Workshop on HIV Drug Resistance and Treatment Strategies, Lake Maggiore, Italy. Abstr. 53 (1998).
The ANTIVIROGRAM® assay (Virco) (WO 97/27480) is based on homologous recombination of patient derived HIV-1 gag/PR/RT sequences into a proviral HIV-1 clone correspondingly deleted for the gag/PR/RT sequences. See Pauwels, et al., J. Virol. Methods 20, 309-321 (1998). A similar assay (Phenosense ViroLogic) is based on enzymatic ligation of patient-derived PR/RT sequences into a correspondingly deleted proviral vector carrying an indicator gene, luciferase, inserted in the deleted HIV-1 envelope gene. See Deeks, S. G., et al., 2nd International Workshop on HIV Drug Resistance and Treatment Strategies, Lake Maggiore, Italy. Abstr. 53 (1998). Hertogs et al. Antimicrob. Agents Chemother. 44(3) 568-573 (2000) the disclosures of which are herein incorporated by reference.
The methods of monitoring HIV-1 drug resistance, may also be used in combination with phenotypic drug resistance testing of viral isolates. For example, in one embodiment, a phenotypic test is utilized that is based upon the construction of chimeric HIV-1 strains composed of the protease (PR) and reverse transcriptase (RT) gene sequences which are isolated and amplified from the patient viral RNA. These strains may subsequently be recombined inside CD4+ T cells with a standard laboratory isogenic (HXB2) HIV-1 DNA construct from which the PR/RT gene sequences were deleted. The recombinant strains may then be grown in the presence of the above-mentioned antiviral drugs and the susceptibility of the viral isolates may be expressed as fold-change value of the IC50 of the drug on the patient isolates over the IC50 of the drug on a wild-type laboratory reference strain.

SMILES: CC(C)CN(C[C@@H](O)[C@H](Cc1ccccc1)NC(=O)O[C@H]1CCOC1)S(=O)(=O)c1ccc(N)cc1 [Amprenavir, amprenavir]
- Fold change in IC50 (Table 12, V055199, genotype 10I + 33F + 54M + 90M): 38.7 fold
- Fold change in IC50 (Table 13, V19263, genotype 77I): 0.6 fold
- Fold change in IC50 (Table 13, V20160, genotype WT): 1.0 fold
- Fold change in IC50 (Table 13, V021667, genotype 10I): 1.1 fold
- Fold change in IC50 (Table 13, V030496, genotype 10I + 77I): 0.5 fold
- Fold change in IC50 (Table 13, V048868, genotype 10I + 54L + 71V + 77I + 90M): 4.1 fold
- Fold change in IC50 (Table 13, V048874, genotype 10I + 33F + 54L + 71V + 77I + 90M): 32.1 fold
- Fold change in IC50 (Table 13, V048875, genotype 10I + 33F + 54L + 71V + 77I + 90M): 24.6 fold
- Fold change in IC50 (Table 13, V048877, genotype 10I + 33F + 77I + 90M): 7.9 fold
- Fold change in IC50 (Table 13, V048880, genotype 10I + 33F + 77I + 90M): 3.8 fold
- Fold change in IC50 (Table 13, V052940, genotype 71V): 0.3 fold
- Fold change in IC50 (Table 13, V052942, genotype 10I + 71V): 0.5 fold
- Fold change in IC50 (Table 13, V052943, genotype 10I + 90M): 0.4 fold
- Fold change in IC50 (Table 13, V052944, genotype 10I + 90M): 0.7 fold
- Fold change in IC50 (Table 13, V052945, genotype 77I + 90M): 0.3 fold
- Fold change in IC50 (Table 13, V052946, genotype 71V + 90M): 0.5 fold
- Fold change in IC50 (Table 13, V052947, genotype 10I + 77I + 90M): 1.2 fold
- Fold change in IC50 (Table 13, V052948, genotype 10I + 71V + 90M): 2.0 fold
- Fold change in IC50 (Table 13, V052949, genotype 10I + 71V + 77I + 90M): 0.6 fold
- Fold change in IC50 (Table 13, V052950, genotype 33F): 0.7 fold
- Fold change in IC50 (Table 13, V052951, genotype 33F + 77I): 0.3 fold
- Fold change in IC50 (Table 13, V052953, genotype 10I + 33F + 77I): 1.5 fold
- Fold change in IC50 (Table 13, V052954, genotype 33F + 77I + 90M): 2.1 fold
- Fold change in IC50 (Table 13, V052955, genotype 33F + 71V + 90M): 2.7 fold
- Fold change in IC50 (Table 13, V052968, genotype 10L/I + 33F/L + 54L + 77I): 2.9 fold
- Fold change in IC50 (Table 13, V052969, genotype 10I + 33F + 54L + 90M): 10.4 fold
- Fold change in IC50 (Table 13, V052970, genotype 54L): 0.8 fold
- Fold change in IC50 (Table 13, V052971, genotype 10I + 54L): 2.6 fold
- Fold change in IC50 (Table 13, V052972, genotype 54L + 77I): 1.1 fold
- Fold change in IC50 (Table 13, V052973, genotype 10I + 54L + 77I): 2.1 fold
- Fold change in IC50 (Table 13, V052974, genotype 10I + 54L + 90M): 1.2 fold
- Fold change in IC50 (Table 13, V052975, genotype 10I + 54L + 71V + 90M): 6.2 fold
- Fold change in IC50 (Table 13, V052976, genotype 10I + 54L + 71V + 77I + 90M): 2.0 fold
- Fold change in IC50 (Table 13, V053832, genotype 10I + 33F): 0.6 fold
- Fold change in IC50 (Table 13, V053854, genotype 54L + 71V): 5.0 fold
- Fold change in IC50 (Virco ID 214846, genotype 10I + 33F + 54V + 71V + 77I + 90M, vs mean IC50 of wild type laboratory HIV strain): 4.2 fold
- Fold change in IC50 (Virco ID V021667, genotype 10I, vs mean IC50 of wild type laboratory HIV strain): 1.1 fold
- Fold change in IC50 (Virco ID V030496, genotype 10I + 77I, vs mean IC50 of wild type laboratory HIV strain): 0.5 fold
- Fold change in IC50 (Virco ID V048876, genotype 33F + 54V + 77I + 90M, vs mean IC50 of wild type laboratory HIV strain): 1.1 fold
- Fold change in IC50 (Virco ID V048877, genotype 10I + 33F + 77I + 90M, vs mean IC50 of wild type laboratory HIV strain): 7.9 fold
- Fold change in IC50 (Virco ID V048880, genotype 10I + 33F + 77I + 90M, vs mean IC50 of wild type laboratory HIV strain): 3.8 fold
- Fold change in IC50 (Virco ID V052940, genotype 71V, vs mean IC50 of wild type laboratory HIV strain): 0.3 fold
- Fold change in IC50 (Virco ID V052942, genotype 10I + 71V, vs mean IC50 of wild type laboratory HIV strain): 0.5 fold
- Fold change in IC50 (Virco ID V052943, genotype 10I + 90M, vs mean IC50 of wild type laboratory HIV strain): 0.4 fold
- Fold change in IC50 (Virco ID V052944, genotype 10I + 90M, vs mean IC50 of wild type laboratory HIV strain): 0.7 fold
- Fold change in IC50 (Virco ID V052946, genotype 71V + 90M, vs mean IC50 of wild type laboratory HIV strain): 0.5 fold
- Fold change in IC50 (Virco ID V052947, genotype 10I + 77I + 90M, vs mean IC50 of wild type laboratory HIV strain): 1.2 fold
- Fold change in IC50 (Virco ID V052948, genotype 10I + 71V + 90M, vs mean IC50 of wild type laboratory HIV strain): 2.0 fold
- Fold change in IC50 (Virco ID V052949, genotype 10I + 71V + 77I + 90M, vs mean IC50 of wild type laboratory HIV strain): 0.6 fold
- Fold change in IC50 (Virco ID V052950, genotype 33F, vs mean IC50 of wild type laboratory HIV strain): 0.7 fold
- Fold change in IC50 (Virco ID V052951, genotype 33F + 77I, vs mean IC50 of wild type laboratory HIV strain): 0.3 fold
- Fold change in IC50 (Virco ID V052953, genotype 10I + 33F + 77I, vs mean IC50 of wild type laboratory HIV strain): 1.5 fold
- Fold change in IC50 (Virco ID V052954, genotype 33F + 77I + 90M, vs mean IC50 of wild type laboratory HIV strain): 2.1 fold
- Fold change in IC50 (Virco ID V052955, genotype 33F + 71V + 90M, vs mean IC50 of wild type laboratory HIV strain): 2.7 fold
- Fold change in IC50 (Virco ID V052957, genotype 10I + 33F + 54V + 90M, vs mean IC50 of wild type laboratory HIV strain): 5.2 fold
- Fold change in IC50 (Virco ID V052958, genotype 10I + 33F + 54V + 77I + 90M, vs mean IC50 of wild type laboratory HIV strain): 7.8 fold
- Fold change in IC50 (Virco ID V052959, genotype 10I + 33F + 54V + 77I + 90M, vs mean IC50 of wild type laboratory HIV strain): 7.0 fold
- Fold change in IC50 (Virco ID V052960, genotype 10I + 33F + 54V + 71V + 90M, vs mean IC50 of wild type laboratory HIV strain): 6.4 fold
- Fold change in IC50 (Virco ID V052961, genotype 54V, vs mean IC50 of wild type laboratory HIV strain): 0.5 fold
- Fold change in IC50 (Virco ID V052962, genotype 10I + 54V, vs mean IC50 of wild type laboratory HIV strain): 0.5 fold
- Fold change in IC50 (Virco ID V052963, genotype 54V + 77I + 90M, vs mean IC50 of wild type laboratory HIV strain): 0.5 fold
- Fold change in IC50 (Virco ID V052964, genotype 54V + 71V + 90M, vs mean IC50 of wild type laboratory HIV strain): 0.3 fold
- Fold change in IC50 (Virco ID V052965, genotype 10I + 54V + 77I + 90M, vs mean IC50 of wild type laboratory HIV strain): 0.7 fold
- Fold change in IC50 (Virco ID V052966, genotype 10I + 54V + 71V + 90M, vs mean IC50 of wild type laboratory HIV strain): 1.5 fold
- Fold change in IC50 (Virco ID V052967, genotype 10I + 54V + 71V + 77I + 90M, vs mean IC50 of wild type laboratory HIV strain): 0.4 fold
- Fold change in IC50 (Virco ID V053358, genotype 33F + 54V + 77I + 90M, vs mean IC50 of wild type laboratory HIV strain): 1.0 fold
- Fold change in IC50 (Virco ID V053831, genotype 33F + 54V, vs mean IC50 of wild type laboratory HIV strain): 7.5 fold
- Fold change in IC50 (Virco ID V053832, genotype 10I + 33F, vs mean IC50 of wild type laboratory HIV strain): 0.6 fold
